In patent US12551576B2, “Chemiluminescent probes” (The General Hospital Corporation, priority 2020, dated 2026):

What was measured:
[1] = target: Aβ aggregates in mouse brain homogenate (Homo sapiens, UniProt P05067); experiment: In vitro chemiluminescence study in brain homogenate; format: binding
[2] = Fluorescence and chemiluminescence spectral studies; format: physicochemical
Method: Materials and Methods: reagents used for the synthesis were purchased from Sigma-Aldrich and used without further purification. Column chromatography was performed on a glass column slurry-packed with silica gel (60 Å, […]; SiliCycle Inc.). Recombinant Aβ peptide (1-40/42) were purchased from rPeptide (A-1163-1). Aβ aggregates for in vitro studies were generated by slow stirring of Aβ40 in PBS buffer for 3 days at room temperature. ^1H and ^13C NMR spectra were recorded at 500 MHz and 125 MHz on Bruker spectrometers in CDCl3, CD3OD or DMSO-d6 solutions at room temperature with tetramethylsilane (TMS, δ=0) as an internal standard. Liquid chromatography-mass spectrometry (LC-MS) was performed using an Agilent 1200 Series apparatus with an LC/MSD trap and Daly conversion dynode detector with UV detection at 254 nm. Fluorescence measurements were carried out using an F-7100 fluorescence spectrophotometer (Hitachi). Transgenic female 5×FAD mice and age-matched wild-type female mice were purchased from Jackson Laboratory. All animal experiments were approved by the Institutional Animal Use and Care Committee at Massachusetts General Hospital. The IVIS Spectrum animal imaging system (PerkinElmer) was used for in vitro and in vivo imaging.
Fluorescence spectral studies: Normally, all chemiluminescent molecules are fluorescent. The excitation and emission spectra of ADLumin-X were recorded and the emission peak of ADLumin-1 was around 590 nm (FIG. 1D) in DMSO, which is considerably longer than most of the commercially available chemiluminescence probes. The emission of ADLumin-2 is longer than that of ADLumin-1, due to its additional double-bond. (the emission peak of ADLumin-2 was 20 nm longer). […] Based on this fact, ADLumin-1 was used throughout this example, due to its high QY.
Chemiluminescence spectral studies: ADLumin-1 is stable in PBS buffer and organic solvents, including acetonitrile, dichloromethane and methanol. […] Without being bound by any theory, it is believed that the luminescence was due to the auto-oxidation of ADLumin-1. Although the mechanism of chemiluminescence of IPO derivatives has been studied, the mechanism of auto-oxidation has been rarely explored. In the course of the experiments, ADLumin-1 emitted very strong luminescence in pure DMSO (FIG. 2b). Unexpectedly, if the ADLumin-1 DMSO solution was stirred, even stronger luminescence can be detected (3.4-fold in FIG. 2b). Without being bound by any theory, it is believed that the luminescence was related to oxygen levels in DMSO. […] However, the increasing-fold decreased with cycles (FIG. 2c). […] Since no ROS were added into the DMSO solution, it is reasonable to infer that the auto-oxidation of ADLumin-1 was oxygen-level dependent. It is worthy to note that green fluorescent protein and luciferase/luciferin also dependent on oxygen for their proper imaging functions.

[3] = Oxygen sensitivity of ADLumin-1; format: physicochemical
Method: Oxygen and ROS sensitivity of ADLumin-1: A 100.0 μL DMSO solution of ADLumin-1 (200.0 μM) was added to a well in a 96-well plate. One group was bubbled with oxygen for 5 seconds at different time points, and the control group was sealed without bubbling. Once the bubbling was over, the plate was subjected to chemiluminescence intensity recording with the IVIS system with the open filter setting (500 nm-840 nm). For ROS tests, A PBS solution (240 μL) was incubated in an Eppendorf tube. To each of above tubes, different ROS (H2O2 30 μL, […] 30 μL, TBHP 30 μL and KO2 30 μL) was added, respectively. Then, a solution of ADLumin-1 in DMSO (30 μL, 250.0 μM) was added. Finally, 100.0 μL of the resulting solution was transferred into a well of 96-well plate, and triplicated samples were prepared. Chemiluminescence images were obtained with an IVIS system under the open filter (500 nm-840 nm).

Aβ plaques [4] = target: T1, Aβ plaques (Homo sapiens, UniProt P05067); experiment: In vitro histological study (brain slice staining); details: 5×FAD mouse brain slice incubated with ADLumin-1
T1 sequence (P05067 672-713 limits assumed): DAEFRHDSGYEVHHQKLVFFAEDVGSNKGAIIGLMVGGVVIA
Method: In vitro histological study: a fresh brain tissue from a 24-month old APP/PS1 mouse was fixed in 4% formaldehyde for 24 hours and transferred into 30% sucrose at 4° C. until the tissue sunk. Then the tissue was embedded in OCT with gradual cooling over dry ice. […] Then the slice was covered with FluoroShield mounting medium (Abcam) and sealed with nail polish.

Aβ plaques [5] = target: T1, Aβ plaques; experiment: Ex vivo histological study; format: in vivo, 5×FAD mouse; details: mouse sacrificed after two-photon imaging
Method: The fresh brain tissue was fixed in 4% formaldehyde for 24 hours and transferred into 30% sucrose at 4° C. until the tissue sunk. Then the tissue was embedded in an OCT block, which was sectioned into 25-μm slice with a cryostat. Then the slice was covered with FluoroShield mounting medium (Abcam).

PA-K = experiment: Chemiluminescence detection of model aggregates (PA-K); format: binding; details: ADLumin-1 2.5 μM, PA-K 0.5 mg/ml
PA-E2 = experiment: Chemiluminescence detection of model aggregates (PA-E2 vs PA-E); format: binding
amylin = amylin (Homo sapiens, UniProt P10997); format: binding
Chain of amylin (P10997 34-70 limits assumed): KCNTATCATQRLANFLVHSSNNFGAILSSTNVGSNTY

[6] = target: Aβ40 aggregates, monomers and oligomers in human serum (Homo sapiens, UniProt P05067); experiment: Chemiluminescence of Aβ40 species incubated with non-diluted human serum
Chain of Aβ40 aggregates, monomers and oligomers in human serum (P05067 672-711 limits assumed): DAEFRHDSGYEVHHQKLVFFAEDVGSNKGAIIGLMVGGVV

[7] = chemiluminescence / bioluminescence spectra

Chain of Aβ aggregates in mouse brain homogenate (P05067 672-711 limits assumed): as above

Cc1nc2c[nH]c(/C=C/C=C/c3ccc(N(C)C)cc3)cn-2c1=O [ADLumin-1, 6-((1E,3E)-4-(4-(dimethylamino)phenyl)buta-1,3-dien-1-yl)-2-methylimidazo[1,2-a]pyrazin-3(7H)-one]
Aβ concentration range with linear intensity increase [1]: 0 to 12.5 µM | chemiluminescence signal, Aβ group vs no Aβ ([1]; Aβ aggregates 12.5 μM): about 11.6 fold | stability ([2]; PBS buffer and organic solvents, including acetonitrile, dichloromethane and methanol): stable | emission peak (FWHM comparison) [2, 7]: 540 nm | full width at half-maximum (FWHM) [2, 7]: 94 nm | fluorescence emission peak ([2]; in DMSO): around 590 nm | chemiluminescence emission peak ([2]; in the presence of 10% DMSO): around 540 nm | response time to O2 [3]: within seconds | luminescence increase after stirring ([3]; ADLumin-1 DMSO solution): 3.4 fold | chemiluminescence intensity increase after O2 bubbling ([3]; DMSO solution, after first 5 seconds bubbling): 27 fold | signal to noise ratio (SNR) of plaques (Aβ plaques [4]): 2.93 | brightness of plaques in brain slides (Aβ plaques [5]): considerably bright | chemiluminescence signal increase vs ADLumin-1 only in PBS (PA-K): 2.49 fold | chemiluminescence intensity PA-E2 group vs PA-E group (PA-E2): 4.39 fold | largest chemiluminescence difference with aggregates (amylin): 4.20 fold | chemiluminescence ratio of the Aβ group and the control group ([6]; Aβ40 aggregate 2.5 μM): about 3.43 fold | chemiluminescence intensity Aβ group vs control group ([6]; Aβ monomers): 1.96 fold | chemiluminescence intensity Aβ group vs control group ([6]; Aβ oligomers): 1.71 fold
